The values below are quoted from earlier work in US10335495B2, “Biomolecule conjugates” (CELGENE CORPORATION, priority 2014, dated 2019).

SMILES strings stand for the structures.

For this data set the following is noted: versus methotrexate, daunorubicin, and vincristine.

For the compound `COc1cc2cc(c1Cl)N(C)C(=O)C[C@H](OC(=O)[C@H](C)N(C)C(C)=O)[C@]1(C)O[C@H]1[C@H](C)[C@@H]1C[C@@](O)(NC(=O)O1)[C@H](OC)/C=C/C=C(\C)C2` [Maytansine], the “more cytotoxic than conventional cancer chemotherapeutic agents” value is on record as 100- to 1000 fold.
